Test results as given in ChEMBL document CHEMBL5620430, “Design, synthesis and biological evaluation of indazole derivatives as selective covalent inhibitors of FGFR4 in wild-type and gatekeeper mutants” (Eur J Med Chem, 2023).
Calls of active or inactive are those of the source. The rule behind the calls is not given here.

Tests used:
Hep 3B2 = experiment: Antiproliferative activity against human Hep3B cells measured after 24 to 48 hrs by MTT assay; format: functional, cell-based
[1] = Half life in Sprague-Dawley rat at 10 mg/kg, po by LC-MS/MS analysis; format: ADME, organism-based; conditions: in vivo
[2] = Tmax in Sprague-Dawley rat at 10 mg/kg, po by LC-MS/MS analysis; format: ADME, organism-based; conditions: in vivo
[3] = Cmax in Sprague-Dawley rat at 2 mg/kg, iv by LC-MS/MS analysis; format: ADME, organism-based; conditions: in vivo
[4] = Cmax in Sprague-Dawley rat at 10 mg/kg, po by LC-MS/MS analysis; format: ADME, organism-based; conditions: in vivo
[5] = AUC (0 to t) in Sprague-Dawley rat at 2 mg/kg, iv by LC-MS/MS analysis; format: ADME, organism-based; conditions: in vivo
[6] = AUC (0 to t) in Sprague-Dawley rat at 10 mg/kg, po by LC-MS/MS analysis; format: ADME, organism-based; conditions: in vivo
[7] = MRT (0 to t) in Sprague-Dawley rat at 2 mg/kg, iv by LC-MS/MS analysis; format: ADME, organism-based; conditions: in vivo
[8] = MRT (0 to t) in Sprague-Dawley rat at 10 mg/kg, po by LC-MS/MS analysis; format: ADME, organism-based; conditions: in vivo
[9] = Observed clearance in Sprague-Dawley rat at 2 mg/kg, iv by LC-MS/MS analysis; format: ADME, organism-based; conditions: in vivo
[10] = Oral bioavailability in Sprague-Dawley rat at 10 mg/kg by LC-MS/MS analysis; format: ADME, organism-based; conditions: in vivo
[11] = biological target: T1, Fibroblast growth factor receptor 4 (Homo sapiens, UniProt P22455); experiment: Inhibition of FGFR4 in human Huh-7 cells assessed as inhibition of MEK phosphorylation measured after 2 hrs by Western blot analysis; format: cell-based
Target sequence in this assay (P22455 22-802 limits assumed): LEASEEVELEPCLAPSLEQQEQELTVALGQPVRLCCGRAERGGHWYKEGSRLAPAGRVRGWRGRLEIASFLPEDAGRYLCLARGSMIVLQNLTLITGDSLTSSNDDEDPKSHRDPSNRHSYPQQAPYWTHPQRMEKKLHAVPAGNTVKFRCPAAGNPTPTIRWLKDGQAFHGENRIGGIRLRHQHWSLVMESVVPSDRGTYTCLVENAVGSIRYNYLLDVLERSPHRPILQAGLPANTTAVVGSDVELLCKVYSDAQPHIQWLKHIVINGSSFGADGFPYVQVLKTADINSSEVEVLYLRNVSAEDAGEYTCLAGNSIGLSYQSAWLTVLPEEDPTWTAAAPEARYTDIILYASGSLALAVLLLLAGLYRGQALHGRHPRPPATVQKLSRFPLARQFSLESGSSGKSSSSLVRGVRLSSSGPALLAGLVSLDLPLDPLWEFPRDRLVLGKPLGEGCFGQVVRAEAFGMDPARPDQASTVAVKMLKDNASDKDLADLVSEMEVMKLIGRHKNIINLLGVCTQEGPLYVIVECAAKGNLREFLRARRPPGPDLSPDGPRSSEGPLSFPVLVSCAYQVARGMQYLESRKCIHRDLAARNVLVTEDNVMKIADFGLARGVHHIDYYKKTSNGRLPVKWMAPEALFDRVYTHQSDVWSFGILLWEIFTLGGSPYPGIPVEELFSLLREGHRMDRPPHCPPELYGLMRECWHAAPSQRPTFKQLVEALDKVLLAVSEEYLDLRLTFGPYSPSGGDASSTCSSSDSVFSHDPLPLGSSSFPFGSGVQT

[12] = biological target: T1, Fibroblast growth factor receptor 4; experiment: Inhibition of FGFR4 in human Huh-7 cells assessed as inhibition of ERK1/2 phosphorylation at 0.5 uM by Western blot analysis; format: cell-based; conditions: time <= 24.0 hrs, TDE = time-dependent effect
Target sequence in this assay (P22455 22-802 limits assumed): as above

[13] = biological target: T1, Fibroblast growth factor receptor 4; experiment: Inhibition of FGFR4 phosphorylation in human Huh-7 cells at 120 nM by Western blot analysis; format: cell-based
Target sequence in this assay (P22455 22-802 limits assumed): as above

[14] = biological target: T1, Fibroblast growth factor receptor 4; experiment: Inhibition of FGFR4 in human Huh-7 cells assessed as inhibition of MEK phosphorylation incubated for 2 hrs followed by compound washout and measured upto 8 hrs by Western blot analysis; format: cell-based
Target sequence in this assay (P22455 22-802 limits assumed): as above

[15] = biological target: T1, Fibroblast growth factor receptor 4; experiment: Inhibition of FGFR4 in human Huh-7 cells assessed as inhibition of ERK1/2 phosphorylation incubated for 2 hrs followed by compound washout and measured upto 8 hrs by Western blot analysis; format: cell-based
Target sequence in this assay (P22455 22-802 limits assumed): as above

Huh-7 [16] = experiment: Inhibition of colony formation in human Huh-7 cells assessed as reduction in number of colonies at 10 to 270 nM measured for 12 days; format: functional, cell-based; conditions: dose 10-270 nM, time 12.0 day
Huh-7 [17] = experiment: Induction of apoptosis in human Huh-7 cells assessed as late apoptotic cells at 1 uM measured after 48 hrs by AnnexinV-FITC/PI staining based flow cytometry (reference value: 2.55%); format: functional
Huh-7 [18] = experiment: Induction of apoptosis in human Huh-7 cells assessed as late apoptotic cells at 2 uM measured after 48 hrs by AnnexinV-FITC/PI staining based flow cytometry (reference value: 2.55%); format: functional
Huh-7 [19] = experiment: Antitumor activity against human Huh-7 cells xenografted in ip dosed NSG mouse assessed as suppression of tumor growth administered twice per day for 2 weeks; format: functional, organism-based; conditions: dose 20-40 mg/kg
Huh-7 [20] = experiment: Antitumor activity against human Huh-7 cells xenografted in ip dosed NSG mouse assessed as decrease in Ki-67 expression administered twice per day for 2 weeks; format: functional, organism-based; conditions: dose 20-40 mg/kg
Huh-7 [21] = experiment: Antitumor activity against human Huh-7 cells xenografted in ip dosed NSG mouse assessed as decrease in FGFR4 phosphorylation level administered twice per day for 2 weeks; format: functional, organism-based; conditions: dose 20-40 mg/kg
[22] = Toxicity in NSG mouse assessed as effect on heart at 20 to 40 mg/kg by H and E staining based analysis; format: organism-based; conditions: in vivo, dose 20-40 mg/kg
[23] = Toxicity in NSG mouse assessed as effect on liver at 20 to 40 mg/kg by H and E staining based analysis; format: organism-based; conditions: in vivo, dose 20-40 mg/kg
[24] = Toxicity in NSG mouse assessed as effect on spleen at 20 to 40 mg/kg by H and E staining based analysis; format: organism-based; conditions: in vivo, dose 20-40 mg/kg
[25] = Toxicity in NSG mouse assessed as effect on lung at 20 to 40 mg/kg by H and E staining based analysis; format: organism-based; conditions: in vivo, dose 20-40 mg/kg
[26] = Toxicity in NSG mouse assessed as effect on kidney at 20 to 40 mg/kg by H and E staining based analysis; format: organism-based; conditions: in vivo, dose 20-40 mg/kg
[27] = Toxicity in NSG mouse assessed as lethality at 20 to 40 mg/kg […]; format: organism-based; conditions: in vivo, dose 20-40 mg/kg
[28] = Toxicity in NSG mouse assessed as effect on body weight at 20 to 40 mg/kg […]; format: organism-based; conditions: in vivo, dose 20-40 mg/kg
[29] = Toxicity in NSG mouse assessed as effect on AST level at 20 to 40 mg/kg […]; format: organism-based; conditions: in vivo, dose 20-40 mg/kg
[30] = Toxicity in NSG mouse assessed as effect on ALT level at 20 to 40 mg/kg […]; format: organism-based; conditions: in vivo, dose 20-40 mg/kg
[31] = Toxicity in NSG mouse assessed as effect on ALP level at 20 to 40 mg/kg […]; format: organism-based; conditions: in vivo, dose 20-40 mg/kg
[32] = Toxicity in NSG mouse assessed as effect on TP level at 20 to 40 mg/kg […]; format: organism-based; conditions: in vivo, dose 20-40 mg/kg
[33] = Toxicity in NSG mouse assessed as effect on UA level at 20 to 40 mg/kg […]; format: organism-based; conditions: in vivo, dose 20-40 mg/kg
[34] = Toxicity in NSG mouse assessed as effect on CK level at 20 to 40 mg/kg […]; format: organism-based; conditions: in vivo, dose 20-40 mg/kg
[35] = Toxicity in NSG mouse assessed as effect on LDL-C level at 20 to 40 mg/kg […]; format: organism-based; conditions: in vivo, dose 20-40 mg/kg
[36] = Toxicity in NSG mouse assessed as effect on HDL-C level at 20 to 40 mg/kg […]; format: organism-based; conditions: in vivo, dose 20-40 mg/kg
[37] = Toxicity in NSG mouse assessed as effect on CHO level at 20 to 40 mg/kg […]; format: organism-based; conditions: in vivo, dose 20-40 mg/kg
[38] = Toxicity in NSG mouse assessed as effect on UREA level at 20 to 40 mg/kg […]; format: organism-based; conditions: in vivo, dose 20-40 mg/kg
[39] = biological target: Fibroblast growth factor receptor 1 (Homo sapiens, UniProt P11362)
Chain of Fibroblast growth factor receptor 1 (P11362 whole entry): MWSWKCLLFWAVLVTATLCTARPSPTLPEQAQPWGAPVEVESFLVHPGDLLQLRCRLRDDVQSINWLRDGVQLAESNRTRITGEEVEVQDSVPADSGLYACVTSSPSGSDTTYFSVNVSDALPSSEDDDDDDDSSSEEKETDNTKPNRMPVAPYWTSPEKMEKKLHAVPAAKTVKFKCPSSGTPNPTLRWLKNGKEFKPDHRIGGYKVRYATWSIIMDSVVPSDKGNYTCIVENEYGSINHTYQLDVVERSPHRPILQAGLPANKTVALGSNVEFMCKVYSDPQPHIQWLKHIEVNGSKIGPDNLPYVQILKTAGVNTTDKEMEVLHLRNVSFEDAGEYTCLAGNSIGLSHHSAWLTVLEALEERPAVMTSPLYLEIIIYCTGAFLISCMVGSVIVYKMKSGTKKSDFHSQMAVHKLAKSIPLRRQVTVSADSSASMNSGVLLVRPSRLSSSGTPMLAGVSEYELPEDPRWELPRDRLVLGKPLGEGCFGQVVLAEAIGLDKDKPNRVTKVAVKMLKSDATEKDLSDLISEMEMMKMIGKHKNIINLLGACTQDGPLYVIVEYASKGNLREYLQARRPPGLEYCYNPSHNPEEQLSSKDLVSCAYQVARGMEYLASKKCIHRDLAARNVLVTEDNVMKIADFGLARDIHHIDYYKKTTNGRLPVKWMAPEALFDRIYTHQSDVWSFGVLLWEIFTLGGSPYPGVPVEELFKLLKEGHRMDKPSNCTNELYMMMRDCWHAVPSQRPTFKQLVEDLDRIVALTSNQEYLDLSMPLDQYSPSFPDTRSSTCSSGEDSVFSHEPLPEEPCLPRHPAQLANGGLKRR
Description: Inhibition of FGFR1 (unknown origin)

[40] = biological target: T1, Fibroblast growth factor receptor 4
Target sequence in this assay (P22455 whole entry): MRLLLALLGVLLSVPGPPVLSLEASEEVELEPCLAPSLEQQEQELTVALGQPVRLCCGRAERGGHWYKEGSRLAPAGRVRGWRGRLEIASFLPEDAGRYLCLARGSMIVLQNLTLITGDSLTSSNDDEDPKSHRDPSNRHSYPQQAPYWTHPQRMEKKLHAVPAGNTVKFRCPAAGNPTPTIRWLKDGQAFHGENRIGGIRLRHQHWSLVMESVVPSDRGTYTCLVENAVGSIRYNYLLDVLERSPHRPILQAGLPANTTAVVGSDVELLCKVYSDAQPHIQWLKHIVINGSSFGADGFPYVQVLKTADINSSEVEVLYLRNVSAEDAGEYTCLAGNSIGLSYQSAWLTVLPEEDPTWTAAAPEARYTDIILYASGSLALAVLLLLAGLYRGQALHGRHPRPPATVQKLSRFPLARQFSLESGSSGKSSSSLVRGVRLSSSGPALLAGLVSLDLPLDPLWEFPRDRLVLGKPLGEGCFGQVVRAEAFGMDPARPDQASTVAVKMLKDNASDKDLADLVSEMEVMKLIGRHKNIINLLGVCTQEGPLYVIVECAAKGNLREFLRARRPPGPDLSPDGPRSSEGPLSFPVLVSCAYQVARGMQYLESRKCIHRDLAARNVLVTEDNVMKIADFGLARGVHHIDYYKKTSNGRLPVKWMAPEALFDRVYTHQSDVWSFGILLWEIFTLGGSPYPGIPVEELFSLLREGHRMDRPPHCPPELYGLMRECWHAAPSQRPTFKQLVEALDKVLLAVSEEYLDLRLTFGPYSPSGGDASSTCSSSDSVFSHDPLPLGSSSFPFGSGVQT
Description: Inhibition of FGFR4 (445 to 753 residues) (unknown origin) expressed in Escherichia coli

[41] = biological target: Fibroblast growth factor receptor 2 (Homo sapiens, UniProt P21802)
Chain of Fibroblast growth factor receptor 2 (P21802 whole entry): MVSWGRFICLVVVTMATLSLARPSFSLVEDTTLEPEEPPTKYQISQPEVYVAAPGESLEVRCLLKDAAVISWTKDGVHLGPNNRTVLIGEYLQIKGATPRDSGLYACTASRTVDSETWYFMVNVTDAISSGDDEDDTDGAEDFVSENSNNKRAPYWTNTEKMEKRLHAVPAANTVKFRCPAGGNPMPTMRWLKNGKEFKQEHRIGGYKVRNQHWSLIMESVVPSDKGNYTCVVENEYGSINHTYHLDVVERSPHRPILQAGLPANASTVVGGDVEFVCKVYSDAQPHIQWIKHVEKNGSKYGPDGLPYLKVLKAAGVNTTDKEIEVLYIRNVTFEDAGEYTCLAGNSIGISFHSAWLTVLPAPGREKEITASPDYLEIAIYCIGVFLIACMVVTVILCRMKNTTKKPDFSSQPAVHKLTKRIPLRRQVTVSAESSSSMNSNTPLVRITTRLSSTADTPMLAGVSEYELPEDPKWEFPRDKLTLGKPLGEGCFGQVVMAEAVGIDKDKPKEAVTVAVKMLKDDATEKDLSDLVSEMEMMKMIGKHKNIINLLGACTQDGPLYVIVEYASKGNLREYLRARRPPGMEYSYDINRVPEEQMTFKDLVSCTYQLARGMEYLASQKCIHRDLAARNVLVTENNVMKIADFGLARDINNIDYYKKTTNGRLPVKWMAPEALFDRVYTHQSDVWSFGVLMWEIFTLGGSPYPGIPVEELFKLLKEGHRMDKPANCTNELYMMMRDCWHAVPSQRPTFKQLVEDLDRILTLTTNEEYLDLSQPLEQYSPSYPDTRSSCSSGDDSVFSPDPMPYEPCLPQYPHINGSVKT
Description: Inhibition of FGFR2 (unknown origin)

[42] = biological target: Fibroblast growth factor receptor 3 (Homo sapiens, UniProt P22607)
Chain of Fibroblast growth factor receptor 3 (P22607 whole entry): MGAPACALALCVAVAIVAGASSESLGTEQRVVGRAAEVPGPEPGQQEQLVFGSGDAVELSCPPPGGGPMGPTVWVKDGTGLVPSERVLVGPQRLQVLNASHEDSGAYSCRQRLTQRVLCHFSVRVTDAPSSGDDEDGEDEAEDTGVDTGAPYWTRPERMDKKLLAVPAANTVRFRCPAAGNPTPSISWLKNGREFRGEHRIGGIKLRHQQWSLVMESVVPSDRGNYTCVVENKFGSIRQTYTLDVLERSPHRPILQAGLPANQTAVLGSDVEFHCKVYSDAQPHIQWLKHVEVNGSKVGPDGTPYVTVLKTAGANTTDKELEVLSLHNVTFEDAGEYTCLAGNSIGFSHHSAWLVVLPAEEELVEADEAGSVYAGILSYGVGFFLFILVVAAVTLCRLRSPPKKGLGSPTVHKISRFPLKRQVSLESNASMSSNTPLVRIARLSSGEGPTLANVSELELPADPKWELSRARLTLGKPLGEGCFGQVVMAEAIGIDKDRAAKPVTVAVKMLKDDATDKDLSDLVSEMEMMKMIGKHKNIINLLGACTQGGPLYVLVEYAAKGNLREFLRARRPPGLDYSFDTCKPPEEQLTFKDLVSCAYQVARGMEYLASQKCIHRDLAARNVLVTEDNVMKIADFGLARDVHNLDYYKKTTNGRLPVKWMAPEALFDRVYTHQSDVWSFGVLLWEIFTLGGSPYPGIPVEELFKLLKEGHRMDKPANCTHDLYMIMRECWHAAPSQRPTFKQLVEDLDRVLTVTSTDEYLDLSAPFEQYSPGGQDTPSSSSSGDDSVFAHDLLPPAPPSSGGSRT
Description: Inhibition of FGFR3 (unknown origin)

Huh-7 [43] = experiment: cells; conditions: Homo sapiens
Description: Antiproliferative activity against human Huh-7 cells measured after 24 to 48 hrs by MTT assay

BaF3 = experiment: cells; conditions: Mus musculus
Description: Antiproliferative activity against mouse BaF3 cells harbouring ETV6-FGFR4-N535K mutant measured after 24 to 48 hrs by MTT assay

In the case of `C=CC(=O)Nc1cc2c(cc1-c1n[nH]c3ccc(O[C@H](C)c4c(Cl)cncc4Cl)cc13)CCN(C)C2`, the IC50 (Hep 3B2) is reported as 0.038 µM, the half-life [1] is reported as 2.59 h and the Tmax [2] is reported as 1.67 h. It also gave a Cmax [3] of 214 ng/mL, a Cmax [4] of 4.91 ng/mL and an AUC(0-t) [5] of 192 ng·h/mL. The AUC(0-t) [6] was 13 ng·h/mL, the MRT last [7] was 1.55 h and the MRT last [8] was 3.04 h. The clearance [9] was 174 mL/min/kg, the bioavailability [10] was 1.36% and the inhibition [11] was “Dose-Dependent Effect”. The inhibition [12] was “Tde”, the inhibition [13] was “Active” and the inhibition [14] was “Active”. For the same compound, the inhibition [15] was “Active”, the inhibition (Huh-7 [16]) was “Active” and the Activity (Huh-7 [17]) was 7.46%. The Activity (Huh-7 [18]) was 11.39%, the Activity (Huh-7 [19]) was “Dose-Dependent Effect” and the Activity (Huh-7 [20]) was “Dose-Dependent Effect”. For the same compound, the Activity (Huh-7 [21]) was “Dose-Dependent Effect”, the Activity [22] was “Non-Toxic” and the Activity [23] was “Non-Toxic”. For the same compound, the Activity [24] was “Non-Toxic”, the Activity [25] was “Non-Toxic” and the Activity [26] was “Non-Toxic”. The Activity [27] was “Non-Toxic”, the Activity [28] was “Non-Toxic” and the Activity [29] was “Non-Toxic”. The Activity [30] was “Non-Toxic”, the Activity [31] was “Non-Toxic” and the Activity [32] was “Non-Toxic”. The Activity [33] was “Non-Toxic”, the Activity [34] was “Non-Toxic” and the Activity [35] was “Non-Toxic”. The Activity [36] was “Non-Toxic”, the Activity [37] was “Non-Toxic” and the Activity [38] was “Non-Toxic”. For the same compound, the IC50 [39] was > 3 µM, the IC50 [40] was 0.0024 µM and the IC50 [41] was > 3000 µM. For the same compound, the IC50 [42] was > 3000 µM, the IC50 (Huh-7 [43]) was 0.021 µM and the IC50 (BaF3) was 0.172 µM.
